Eight compounds from publication PMC10303271, “Synthesis and Receptor Binding Studies of α5 GABAAR Selective Novel Imidazodiazepines Targeted for Psychiatric and Cognitive Disorders” (Molecules, 2023) can be followed below.

One data set concerns the target T1, M2 (Homo sapiens, UniProt P08172).
T1 construct: purchased NIMH Psychoactive Drug Screening Program (PDSP)
T1 sequence (P08172 1-466): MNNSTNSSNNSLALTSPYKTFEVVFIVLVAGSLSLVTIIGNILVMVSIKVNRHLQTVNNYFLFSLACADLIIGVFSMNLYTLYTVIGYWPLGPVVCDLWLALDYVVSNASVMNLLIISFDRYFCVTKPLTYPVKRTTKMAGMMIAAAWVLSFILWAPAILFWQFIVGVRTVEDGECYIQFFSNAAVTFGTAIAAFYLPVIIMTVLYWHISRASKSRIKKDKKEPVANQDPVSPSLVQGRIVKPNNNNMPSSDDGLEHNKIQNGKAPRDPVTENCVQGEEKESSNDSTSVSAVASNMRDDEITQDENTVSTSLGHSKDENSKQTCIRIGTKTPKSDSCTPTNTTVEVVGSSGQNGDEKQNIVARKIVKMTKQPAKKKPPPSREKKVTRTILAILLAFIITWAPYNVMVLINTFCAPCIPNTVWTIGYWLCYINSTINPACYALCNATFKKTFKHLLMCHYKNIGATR
Nature of the data set: PDSP primary binding M2. To be noted: primary binding, 10,000 nM; last figure of the line = mean of the 4 before it; read-out: M2, PDSP raw data, mean. Here is the method:
(§1) To determine if any off-target receptor-binding effects are present, all the novel ligands were sent to the National Institute of Mental Health (NIMH), Psychoactive Drug Screening Program (PDSP). The ligands were screened over a panel of 47 receptors, ion channels, and transporters to determine any other possible interactions with […]. The hERG-binding was also determined. […] No binding of the test compounds to calcium channels was observed. […] It is necessary to screen the compounds for hERG-binding during the early process of drug discovery. The unintentional binding of many drugs to hERG can cause blockade of hERG K+ channels in the heart, which can cause many side effects including cardiac arrhythmias and sudden death. […] All of the α5 imidazodiazepines were tested for hERG-binding.
(§2) The NIMH PDSP assay protocol book [https://kidbdev.med.unc.edu/databases/PDSP%20Protocols%20II%202013-03-28.pdf accessed on 23 April 2023]. describes the protocols for primary and secondary radio-ligand binding assays. These assays were carried out in a final volume of 125 µL per well in the appropriate binding buffer.
(§3) The binding of a ligand to a receptor, ion channel, or transporter was determined in the […] of 10 µM of the appropriate reference compound. […] Plates were incubated in the dark for 90 min at rt, and the reactions were stopped by vacuum filtration onto 0.3% polyethyleneimine (PEI) soaked 96-well filter mats using a 96-well Filtermateharvester. This was followed by three washes with cold PBS buffer. Radioactivity was then counted on a Microbeta counter. Nonlinear regression was used to analyze the data with N = 6 replicates.

Another data set has as its target T2, M4 (Homo sapiens, UniProt P08173).
T2 construct: purchased NIMH Psychoactive Drug Screening Program (PDSP)
T2 sequence (P08173 1-479): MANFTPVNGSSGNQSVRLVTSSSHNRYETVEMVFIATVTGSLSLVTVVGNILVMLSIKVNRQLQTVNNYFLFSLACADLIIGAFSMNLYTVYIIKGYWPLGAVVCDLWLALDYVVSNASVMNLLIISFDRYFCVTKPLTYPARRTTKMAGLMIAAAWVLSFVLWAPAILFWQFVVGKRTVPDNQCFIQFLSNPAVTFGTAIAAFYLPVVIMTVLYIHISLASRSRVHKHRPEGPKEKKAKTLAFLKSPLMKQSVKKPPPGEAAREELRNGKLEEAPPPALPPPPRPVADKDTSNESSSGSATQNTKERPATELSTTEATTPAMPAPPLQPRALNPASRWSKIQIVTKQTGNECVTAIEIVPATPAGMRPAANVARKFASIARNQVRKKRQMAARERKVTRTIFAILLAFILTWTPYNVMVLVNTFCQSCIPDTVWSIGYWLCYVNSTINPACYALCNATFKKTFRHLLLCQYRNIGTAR
Nature of the data set: PDSP primary binding M4. To be noted: primary binding, 10,000 nM; last figure of the line = mean of the 4 before it; read-out: M4, PDSP raw data, mean. How it is done: as §1, §2, §3

The target of the next data set is T3, hERG channels (Homo sapiens, UniProt Q12809).
T3 construct: purchased NIMH Psychoactive Drug Screening Program (PDSP)
T3 sequence (Q12809 whole entry): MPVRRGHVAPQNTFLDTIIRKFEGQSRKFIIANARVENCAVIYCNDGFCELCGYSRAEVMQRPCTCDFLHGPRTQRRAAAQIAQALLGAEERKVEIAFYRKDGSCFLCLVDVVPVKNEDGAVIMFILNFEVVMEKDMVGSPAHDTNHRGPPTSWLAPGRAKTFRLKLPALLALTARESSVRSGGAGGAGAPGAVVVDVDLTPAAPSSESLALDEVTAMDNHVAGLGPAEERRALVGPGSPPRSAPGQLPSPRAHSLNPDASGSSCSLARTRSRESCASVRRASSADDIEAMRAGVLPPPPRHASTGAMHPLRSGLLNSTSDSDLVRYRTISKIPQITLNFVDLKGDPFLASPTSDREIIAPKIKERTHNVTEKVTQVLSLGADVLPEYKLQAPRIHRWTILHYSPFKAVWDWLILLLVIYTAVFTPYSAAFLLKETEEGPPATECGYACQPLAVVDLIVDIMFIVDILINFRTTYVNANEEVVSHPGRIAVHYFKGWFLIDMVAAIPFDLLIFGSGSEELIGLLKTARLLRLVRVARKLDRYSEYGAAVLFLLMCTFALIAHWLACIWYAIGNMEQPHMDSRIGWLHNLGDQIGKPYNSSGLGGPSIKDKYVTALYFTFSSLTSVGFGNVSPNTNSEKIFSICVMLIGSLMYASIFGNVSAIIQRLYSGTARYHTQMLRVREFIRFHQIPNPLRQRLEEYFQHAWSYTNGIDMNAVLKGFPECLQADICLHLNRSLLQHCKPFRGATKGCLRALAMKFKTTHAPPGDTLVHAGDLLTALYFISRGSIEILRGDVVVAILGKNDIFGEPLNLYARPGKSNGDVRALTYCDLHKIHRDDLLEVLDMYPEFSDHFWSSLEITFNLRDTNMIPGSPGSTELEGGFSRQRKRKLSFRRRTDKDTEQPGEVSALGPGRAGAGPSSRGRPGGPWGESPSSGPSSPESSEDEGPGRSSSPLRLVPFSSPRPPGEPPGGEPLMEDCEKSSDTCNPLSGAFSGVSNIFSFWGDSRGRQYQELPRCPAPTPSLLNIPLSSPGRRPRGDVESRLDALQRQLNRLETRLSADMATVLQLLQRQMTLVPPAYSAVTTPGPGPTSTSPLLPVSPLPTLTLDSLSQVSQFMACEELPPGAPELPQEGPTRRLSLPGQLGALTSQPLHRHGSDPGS
Nature of the data set: PDSP radioligand binding at hERG. As to conditions: primary binding, 10,000 nM; last figure of the line = mean of the 4 before it. Here is the method: as §1, §2, §3

A further data set deals with T4, 5-HT1E (Homo sapiens, UniProt P28566).
T4 construct: purchased NIMH Psychoactive Drug Screening Program (PDSP)
T4 sequence (P28566 whole entry): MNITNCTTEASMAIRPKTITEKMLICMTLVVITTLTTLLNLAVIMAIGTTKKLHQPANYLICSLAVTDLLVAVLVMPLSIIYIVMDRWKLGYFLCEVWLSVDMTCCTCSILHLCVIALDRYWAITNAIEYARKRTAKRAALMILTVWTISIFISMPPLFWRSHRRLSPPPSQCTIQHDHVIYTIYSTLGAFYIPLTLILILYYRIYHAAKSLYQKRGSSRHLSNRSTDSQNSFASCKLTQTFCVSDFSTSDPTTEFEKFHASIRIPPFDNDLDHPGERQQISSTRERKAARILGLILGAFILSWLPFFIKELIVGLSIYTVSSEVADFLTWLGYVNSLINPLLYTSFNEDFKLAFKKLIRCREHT
Nature of the data set: PDSP primary binding 5-HT1E. As to conditions: primary binding, 10,000 nM; last figure of the line = mean of the 4 before it. Here is the method: as §1, §2, §3

The target in a further data set is T5, H2 (Homo sapiens, UniProt P25021).
T5 construct: purchased NIMH Psychoactive Drug Screening Program (PDSP)
T5 sequence (P25021 whole entry): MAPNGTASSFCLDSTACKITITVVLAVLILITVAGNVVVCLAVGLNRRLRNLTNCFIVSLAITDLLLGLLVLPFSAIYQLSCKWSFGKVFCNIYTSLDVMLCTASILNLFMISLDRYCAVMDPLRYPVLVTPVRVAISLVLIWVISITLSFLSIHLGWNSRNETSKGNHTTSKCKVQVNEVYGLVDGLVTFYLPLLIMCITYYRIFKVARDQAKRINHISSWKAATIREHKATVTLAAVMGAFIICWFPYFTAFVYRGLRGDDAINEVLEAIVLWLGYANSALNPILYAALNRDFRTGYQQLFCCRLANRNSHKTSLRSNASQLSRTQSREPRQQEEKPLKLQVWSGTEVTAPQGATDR
Nature of the data set: PDSP primary binding H2. As to conditions: primary binding, 10,000 nM; last figure of the line = mean of the 4 before it; read-out: H2, PDSP raw data, mean. Here is the method:
as §1, §2, §3

For another data set, the target named is T6, Alpha2A (Homo sapiens, UniProt P08913).
T6 construct: purchased NIMH Psychoactive Drug Screening Program (PDSP)
T6 sequence (P08913 1-465): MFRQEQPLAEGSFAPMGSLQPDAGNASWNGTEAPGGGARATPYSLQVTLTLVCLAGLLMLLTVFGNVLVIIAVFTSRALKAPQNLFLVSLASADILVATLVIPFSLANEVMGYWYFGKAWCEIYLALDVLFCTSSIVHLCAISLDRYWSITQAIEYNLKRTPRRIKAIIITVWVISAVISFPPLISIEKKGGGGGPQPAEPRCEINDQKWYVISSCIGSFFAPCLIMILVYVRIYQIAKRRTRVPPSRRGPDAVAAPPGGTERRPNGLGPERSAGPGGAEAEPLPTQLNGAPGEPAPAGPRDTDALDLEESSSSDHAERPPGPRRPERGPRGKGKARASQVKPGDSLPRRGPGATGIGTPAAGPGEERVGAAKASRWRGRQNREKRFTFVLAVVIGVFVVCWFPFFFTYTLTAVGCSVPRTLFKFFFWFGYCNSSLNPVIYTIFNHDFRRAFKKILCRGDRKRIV
Nature of the data set: PDSP primary binding Alpha2A. As to conditions: 1.5 h; primary binding, 10,000 nM; last figure of the line = mean of the 4 before it; read-out: Alpha2A, PDSP raw data, mean. Here is the method:
as §1, §2, §3

The target of another data set is T7, Beta3 (Homo sapiens, UniProt P13945).
T7 construct: purchased NIMH Psychoactive Drug Screening Program (PDSP)
T7 sequence (P13945 whole entry): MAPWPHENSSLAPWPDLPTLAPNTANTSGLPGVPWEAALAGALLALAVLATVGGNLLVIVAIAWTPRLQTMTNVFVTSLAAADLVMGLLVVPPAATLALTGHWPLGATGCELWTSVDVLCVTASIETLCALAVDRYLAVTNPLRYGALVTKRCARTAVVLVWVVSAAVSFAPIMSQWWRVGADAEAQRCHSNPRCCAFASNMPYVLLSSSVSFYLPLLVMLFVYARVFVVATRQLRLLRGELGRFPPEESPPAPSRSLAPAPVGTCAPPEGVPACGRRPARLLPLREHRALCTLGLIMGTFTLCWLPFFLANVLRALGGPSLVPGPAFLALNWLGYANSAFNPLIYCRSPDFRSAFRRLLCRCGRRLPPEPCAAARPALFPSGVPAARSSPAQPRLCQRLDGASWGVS
Nature of the data set: PDSP primary binding Beta3. As to conditions: 1.5 h; primary binding, 10,000 nM; last figure of the line = mean of the 4 before it; read-out: Beta3, PDSP raw data, mean. Here is the method:
as §1, §2, §3

Another data set concerns the target T8, Alpha4Beta4 (Rattus norvegicus, UniProt P09483+P12392).
T8 construct: purchased NIMH Psychoactive Drug Screening Program (PDSP)
Nature of the data set: PDSP primary binding Alpha4Beta4. To be noted: primary binding, 10,000 nM; last figure of the line = mean of the 4 before it; read-out: Alpha4Beta4, PDSP raw data, mean. How it is done:
as §1, §2, §3

A further data set has as its target T9, 5-HT1B (Homo sapiens, UniProt P28222).
T9 construct: purchased NIMH Psychoactive Drug Screening Program (PDSP)
Nature of the data set: PDSP primary binding 5-HT1B. As to conditions: 1.5 h; primary binding, 10,000 nM; last figure of the line = mean of the 4 before it; read-out: 5-HT1B, PDSP raw data, mean. How it is done:
as §1, §2, §3

T8 sequence (P09483 31-630): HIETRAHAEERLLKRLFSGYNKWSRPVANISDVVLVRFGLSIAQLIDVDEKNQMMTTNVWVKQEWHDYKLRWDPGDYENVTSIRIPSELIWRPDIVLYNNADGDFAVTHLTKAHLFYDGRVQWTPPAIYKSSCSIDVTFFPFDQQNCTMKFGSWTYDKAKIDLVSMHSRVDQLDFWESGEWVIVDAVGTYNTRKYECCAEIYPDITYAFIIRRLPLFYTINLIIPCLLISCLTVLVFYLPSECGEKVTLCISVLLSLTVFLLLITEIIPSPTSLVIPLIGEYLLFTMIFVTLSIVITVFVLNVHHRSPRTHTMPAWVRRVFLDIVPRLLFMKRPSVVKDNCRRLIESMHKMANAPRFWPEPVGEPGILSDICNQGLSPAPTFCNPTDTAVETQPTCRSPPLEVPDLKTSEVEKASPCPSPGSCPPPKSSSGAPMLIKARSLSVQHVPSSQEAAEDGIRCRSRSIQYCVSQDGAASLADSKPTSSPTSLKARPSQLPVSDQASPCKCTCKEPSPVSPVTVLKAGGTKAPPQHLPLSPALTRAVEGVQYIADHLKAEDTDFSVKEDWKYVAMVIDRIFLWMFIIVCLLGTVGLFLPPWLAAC
T8 sequence (P12392 21-495): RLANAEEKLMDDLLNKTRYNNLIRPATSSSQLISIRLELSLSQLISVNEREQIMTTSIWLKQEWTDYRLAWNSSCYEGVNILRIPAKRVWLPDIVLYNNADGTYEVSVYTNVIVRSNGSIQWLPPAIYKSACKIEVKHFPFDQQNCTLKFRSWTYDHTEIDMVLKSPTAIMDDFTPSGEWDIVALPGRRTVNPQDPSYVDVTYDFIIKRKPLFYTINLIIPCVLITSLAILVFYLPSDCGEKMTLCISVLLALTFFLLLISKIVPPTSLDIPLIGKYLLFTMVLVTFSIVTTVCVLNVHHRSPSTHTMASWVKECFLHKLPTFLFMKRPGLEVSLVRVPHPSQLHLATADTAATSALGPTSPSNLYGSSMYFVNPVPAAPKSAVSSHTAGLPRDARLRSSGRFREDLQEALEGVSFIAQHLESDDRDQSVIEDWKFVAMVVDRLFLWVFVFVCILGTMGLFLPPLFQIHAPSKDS
T9 sequence (P28222 whole entry): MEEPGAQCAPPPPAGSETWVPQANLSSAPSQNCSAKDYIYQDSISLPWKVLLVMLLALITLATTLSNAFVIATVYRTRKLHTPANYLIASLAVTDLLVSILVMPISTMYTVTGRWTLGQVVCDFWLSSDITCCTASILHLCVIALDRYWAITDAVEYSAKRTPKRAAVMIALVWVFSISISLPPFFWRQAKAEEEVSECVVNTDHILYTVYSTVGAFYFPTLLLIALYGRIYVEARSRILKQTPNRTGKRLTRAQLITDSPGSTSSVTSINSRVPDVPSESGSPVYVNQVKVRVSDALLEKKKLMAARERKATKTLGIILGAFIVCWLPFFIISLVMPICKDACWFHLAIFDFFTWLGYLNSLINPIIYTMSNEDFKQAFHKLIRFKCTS

On to `CCc1noc(-c2ncn3c2[C@@H](C)N=C(c2ccccc2F)c2cc(C4CC4)ccc2-3)n1` [Compound 46, (R)-5-(8-Cyclopropyl-6-(2′-fluorophenyl)-4-methyl-4H-benzo[f]imidazo[1,5-a][1,4]diazepin-3-yl)-3-ethyl-1,2,4-oxadiazole], for which the inhibition at 10 µM on M2 is 5.73%; on M4, -0.8%; at H2 it was 6.98%; at Alpha2A it was 29.2%; on Beta3, 31.1%; on Alpha4Beta4, 14.2%. In addition, the inhibition at 10 µM at 5-HT1B worked out at 15.1%. Moreover, the “HERG, PDSP raw data, mean” value at hERG channels was 4.34%. In addition, the “5-HT1E, PDSP raw data, mean” value at 5-HT1E is reported as -18.76%.
Turning to `C#Cc1ccc2c(c1)C(c1ccccc1Cl)=N[C@H](C)c1c(C(=O)N(C)CC)ncn1-2` [Compound 29], the inhibition at 10 µM was 3.03% on M2; 4.91% at M4; -0.28% on H2; 7.96% at Alpha2A; 9.72% on Beta3; -3.3% at Alpha4Beta4. Moreover, the inhibition at 10 µM on 5-HT1B is -3.99%. Further, the “HERG, PDSP raw data, mean” value at hERG channels is -1.55%. The “5-HT1E, PDSP raw data, mean” value at 5-HT1E amounted to 19.25%.
Regarding `C#Cc1ccc2c(c1)C(c1ccccn1)=N[C@@H](C)c1c(C(=O)NC)ncn1-2` [Compound 23, (S)-8-Ethynyl-N,4-dimethyl-6-(pyridin-2′-yl)-4H-benzo[f]imidazo[1,5-a][1,4]diazepine-3-carboxamide], the inhibition at 10 µM at M2 was -6.16%; on M4, 2.93%; on H2 it was -23.3%; at Alpha2A, 5.8%; on Beta3, 0.63%; at Alpha4Beta4 it was 4.42%. Besides, on 5-HT1B, the inhibition at 10 µM is -3.82%. For the same compound, the “HERG, PDSP raw data, mean” value on hERG channels is -4.24%. For the same compound, the “5-HT1E, PDSP raw data, mean” value on 5-HT1E was determined as 19.33%.
As for `C#Cc1ccc2c(c1)C(c1ccccc1Cl)=N[C@H](C)c1c(C(=O)NC)ncn1-2` [Compound 21, (R)-6-(2′-Chlorophenyl)-8-ethynyl-N,4-dimethyl-4H-benzo[f]imidazo[1,5-a][1,4]diazepine-3-carboxamide], the inhibition at 10 µM on M2 was 0.22%; on M4, -16.9%; at H2 it was -2.07%; on Alpha2A, -1.1%; on Beta3, 10.7%; at Alpha4Beta4, 14.4%. Also, the inhibition at 10 µM at 5-HT1B is -0.39%. The “HERG, PDSP raw data, mean” value on hERG channels is recorded as -5.73%. In addition, the “5-HT1E, PDSP raw data, mean” value at 5-HT1E stood at 7.75%.
`CCc1noc(-c2ncn3c2[C@@H](C)N=C(c2ccccc2F)c2cc(-c4ccccc4)ccc2-3)n1` [Compound 35, (R)-3-Ethyl-5-(6-(2′-fluorophenyl)-4-methyl-8-phenyl-4H-benzo[f]imidazo[1,5-a][1,4]diazepin-3-yl)-1,2,4-oxadiazole]: the inhibition at 10 µM on M2 was -7.95%; at M4, -4.16%; on H2 it was -10.1%; at Alpha2A, 34.5%; on Beta3, 27.9%; on Alpha4Beta4, 17.9%. Also, the inhibition at 10 µM at 5-HT1B was 11.6%. In addition, the “HERG, PDSP raw data, mean” value on hERG channels is given as 37.34%. The “5-HT1E, PDSP raw data, mean” value at 5-HT1E is given as 5.88%.
`C#Cc1ccc2c(c1)C(c1ccccn1)=N[C@@H](C)c1c(C(=O)N(C)C)ncn1-2` [Compound 31, (S)-8-Ethynyl-N,N,4-trimethyl-6-(pyridin-2′-yl)-4H-benzo[f]imidazo[1,5-a][1,4]diazepine-3-carboxamide]: the inhibition at 10 µM is 3.03% on M2; 3.2% on M4; -12.1% at H2; -7.15% at Alpha2A; -6.68% at Beta3; 6.85% on Alpha4Beta4. Also, at 5-HT1B, the inhibition at 10 µM is -0.27%. The “HERG, PDSP raw data, mean” value on hERG channels is on record as 0.95%. For the same compound, the “5-HT1E, PDSP raw data, mean” value at 5-HT1E is 18.14%.
As to `C#Cc1ccc2c(c1)C(c1ccccc1F)=N[C@H](C)c1c(C(=S)N(C)C)ncn1-2` [Compound 33, (R)-8-Ethynyl-6-(2′-fluorophenyl)-N,N,4-trimethyl-4H-benzo[f]imidazo[1,5-a][1,4]diazepine-3-carbothioamide], the inhibition at 10 µM was 15.4% at M2; -3.29% on M4; -1.42% at H2; 5.99% on Alpha2A; -19.4% at Beta3; 1.99% on Alpha4Beta4. For the same compound, the inhibition at 10 µM on 5-HT1B was 11.8%. Also, at hERG channels, the “HERG, PDSP raw data, mean” value is -0.48%. Further, the “5-HT1E, PDSP raw data, mean” value at 5-HT1E turned out to be 34.07%.
With `C[C@H]1N=C(c2ccccc2F)c2cc(Cl)ccc2-n2cnc(-c3nc(C4CC4)no3)c21` [Compound 38, (R)-5-(8-Chloro-6-(2′-fluorophenyl)-4-methyl-4H-benzo[f]imidazo[1,5-a][1,4]diazepin-3-yl)-3-cyclopropyl-1,2,4-oxadiazole], the inhibition at 10 µM is -9.65% at M2; -8.66% at M4; 6.81% at H2; 15.6% on Alpha2A; 24.2% on Beta3; 8.62% at Alpha4Beta4. Besides, the inhibition at 10 µM at 5-HT1B was determined as 8.75%. Also, at hERG channels, the “HERG, PDSP raw data, mean” value was determined as 9.37%. For the same compound, on 5-HT1E, the “5-HT1E, PDSP raw data, mean” value is reported as -22.45%.
